Laboratory results taken from ChEMBL document CHEMBL3885881, “DrugMatrix”.

Organism: Rattus norvegicus
Test: DrugMatrix - Regimen: Daily Repeat
Assay type: toxicity, organism-based, Sprague-Dawley
Set-up: regimen Daily Repeat, gender Male, age 6-8 weeks
Conditions: in vivo, po, route oral GAVAGE, vehicle .5 % CMC; for ABSOLUTE BASOPHIL / ABSOLUTE EOSINOPHIL / ABSOLUTE LYMPHOCYTE / ABSOLUTE MONOCYTE / ABSOLUTE SEGMENTED NEUTROPHIL / BASOPHIL / EOSINOPHIL / HEMATOCRIT / LEUKOCYTE COUNT / LYMPHOCYTE / MEAN CORPUSCULAR HEMOGLOBIN / MEAN CORPUSCULAR HEMOGLOBIN CONCENTRATION / MEAN CORPUSCULAR VOLUME / MONOCYTE / NEUTROPHIL / NUCLEATED RED BLOOD CELLS / PLATELET COUNT: tissue Blood; for ALANINE AMINOTRANSFERASE / ALBUMIN / ALKALINE PHOSPHATASE / ASPARTATE AMINOTRANSFERASE / BLOOD UREA NITROGEN / CARBON DIOXIDE / CHLORIDE / CHOLESTEROL / CREATININE / GLUCOSE / LACTATE DEHYDROGENASE / LIPASE / PHOSPHORUS / TOTAL BILIRUBIN / TOTAL PROTEIN / URIC ACID / SODIUM: tissue Plasma
[1] = 0 mg/kg, 72 h, dose level Control, time 3 day
[2] = 0 mg/kg, 120 h, dose level Control, time 5 day
[3] = 23 mg/kg, 72 h, dose level High, time 3 day

Cc1cc2c(s1)Nc1ccccc1N=C2N1CCN(C)CC1 [OLANZAPINE]
ABSOLUTE BASOPHIL [1]: 0 CELLS/uL | ABSOLUTE EOSINOPHIL [1]: 47.67 CELLS/uL | ABSOLUTE LYMPHOCYTE [1]: 15937.67 CELLS/uL | ABSOLUTE MONOCYTE [1]: 138.33 CELLS/uL | ABSOLUTE SEGMENTED NEUTROPHIL [1]: 1443 CELLS/uL | BASOPHIL [1]: 0% | EOSINOPHIL [1]: 0.33% | HEMATOCRIT [1]: 34.43% | LEUKOCYTE COUNT [1]: 17.57 x10E3/uL | LYMPHOCYTE [1]: 90.33% | MEAN CORPUSCULAR HEMOGLOBIN [1]: 24.6 pg | MEAN CORPUSCULAR HEMOGLOBIN CONCENTRATION [1]: 38.88 G/DL | MEAN CORPUSCULAR VOLUME [1]: 63.27 fL | MONOCYTE [1]: 0.83% | NEUTROPHIL [1]: 8.5% | NUCLEATED RED BLOOD CELLS [1]: 0 /100WBC | PLATELET COUNT [1]: 1298 x10E3/uL | ALANINE AMINOTRANSFERASE [1]: 47.67 u/L | ALBUMIN [1]: 4.18 G/DL | ALKALINE PHOSPHATASE [1]: 398.5 u/L | ASPARTATE AMINOTRANSFERASE [1]: 93.17 u/L | BLOOD UREA NITROGEN [1]: 16 mg/dL | CARBON DIOXIDE [1]: 29.17 mmol/L | CHLORIDE [1]: 98.17 MEQ/L | CHOLESTEROL [1]: 68.83 mg/dL | CREATININE [1]: 0.14 mg/dL | GLUCOSE [1]: 151.67 mg/dL | LACTATE DEHYDROGENASE [1]: 597.5 u/L | LIPASE [1]: 9.33 u/L | PHOSPHORUS [1]: 11.97 mg/dL | TOTAL BILIRUBIN [1]: 0.18 mg/dL | TOTAL PROTEIN [1]: 5.82 G/DL | URIC ACID [1]: 1.48 mg/dL | ABSOLUTE BASOPHIL [2]: 0 CELLS/uL | ABSOLUTE EOSINOPHIL [2]: 31 CELLS/uL | ABSOLUTE LYMPHOCYTE [2]: 14327.83 CELLS/uL | ABSOLUTE MONOCYTE [2]: 102.83 CELLS/uL | ABSOLUTE SEGMENTED NEUTROPHIL [2]: 1321.67 CELLS/uL | BASOPHIL [2]: 0% | EOSINOPHIL [2]: 0.17% | HEMATOCRIT [2]: 36.1% | LEUKOCYTE COUNT [2]: 15.78 x10E3/uL | LYMPHOCYTE [2]: 90.5% | MEAN CORPUSCULAR HEMOGLOBIN [2]: 24.48 pg | MEAN CORPUSCULAR HEMOGLOBIN CONCENTRATION [2]: 39.22 G/DL | MEAN CORPUSCULAR VOLUME [2]: 62.4 fL | MONOCYTE [2]: 0.67% | NEUTROPHIL [2]: 8.67% | NUCLEATED RED BLOOD CELLS [2]: 0.17 /100WBC | PLATELET COUNT [2]: 1211.67 x10E3/uL | ALANINE AMINOTRANSFERASE [2]: 49 u/L | ALBUMIN [2]: 4.27 G/DL | ALKALINE PHOSPHATASE [2]: 356.67 u/L | ASPARTATE AMINOTRANSFERASE [2]: 90.17 u/L | BLOOD UREA NITROGEN [2]: 20.5 mg/dL | CARBON DIOXIDE [2]: 29.17 mmol/L | CHLORIDE [2]: 98 MEQ/L | CHOLESTEROL [2]: 69.83 mg/dL | CREATININE [2]: 0.21 mg/dL | GLUCOSE [2]: 149.83 mg/dL | LACTATE DEHYDROGENASE [2]: 322 u/L | LIPASE [2]: 10 u/L | PHOSPHORUS [2]: 12 mg/dL | SODIUM [2]: 142.8 MEQ/L | TOTAL BILIRUBIN [2]: 0.17 mg/dL | TOTAL PROTEIN [2]: 6.1 G/DL | URIC ACID [2]: 1.68 mg/dL | ABSOLUTE BASOPHIL [3]: 0 CELLS/uL | ABSOLUTE EOSINOPHIL [3]: 0 CELLS/uL | ABSOLUTE LYMPHOCYTE [3]: 12570 CELLS/uL | ABSOLUTE MONOCYTE [3]: 145.67 CELLS/uL | ABSOLUTE SEGMENTED NEUTROPHIL [3]: 851 CELLS/uL | BASOPHIL [3]: 0% | EOSINOPHIL [3]: 0% | HEMATOCRIT [3]: 37.27% | LEUKOCYTE COUNT [3]: 13.57 x10E3/uL | LYMPHOCYTE [3]: 92.67% | MEAN CORPUSCULAR HEMOGLOBIN [3]: 24.63 pg | MEAN CORPUSCULAR HEMOGLOBIN CONCENTRATION [3]: 39.1 G/DL | MEAN CORPUSCULAR VOLUME [3]: 63 fL | MONOCYTE [3]: 1% | NEUTROPHIL [3]: 6.33% | NUCLEATED RED BLOOD CELLS [3]: 0 /100WBC | PLATELET COUNT [3]: 1303 x10E3/uL | ALANINE AMINOTRANSFERASE [3]: 52 u/L | ALBUMIN [3]: 4.4 G/DL | ALKALINE PHOSPHATASE [3]: 415.67 u/L | ASPARTATE AMINOTRANSFERASE [3]: 84 u/L | BLOOD UREA NITROGEN [3]: 21.33 mg/dL | CARBON DIOXIDE [3]: 26.33 mmol/L | CHLORIDE [3]: 102 MEQ/L | CHOLESTEROL [3]: 86.67 mg/dL | CREATININE [3]: 0.21 mg/dL | GLUCOSE [3]: 155.67 mg/dL | LACTATE DEHYDROGENASE [3]: 203.33 u/L | LIPASE [3]: 9.67 u/L | PHOSPHORUS [3]: 11.47 mg/dL | SODIUM [3]: 144.27 MEQ/L | TOTAL BILIRUBIN [3]: 0.23 mg/dL | TOTAL PROTEIN [3]: 5.97 G/DL | URIC ACID [3]: 1.83 mg/dL
